What was measured:
[1] = target: T1, IKZF1 (Homo sapiens, UniProt Q13422+Q96SW2); experiment: Flow cytometry for measuring degradation, HEK293T GFP-POI reporter cells (IKZF1); type: cell-based; conditions: 24 h, HEK293T GFP reporter
T1 construct: expressed in transfected cells; host or cells: HEK293T (lentiviral transduction, puromycin selection, FACS sorting)

[2] = target: T2, IKZF2 (Homo sapiens, UniProt Q96SW2+Q9UKS7); experiment: Flow cytometry for measuring degradation, HEK293T GFP-POI reporter cells (IKZF2); type: cell-based
T2 construct: expressed in transfected cells; host or cells: HEK293T (lentiviral transduction, puromycin selection, FACS sorting)

[3] = target: T3, CK1α (Homo sapiens, UniProt P48729+Q96SW2); experiment: Flow cytometry for measuring degradation, HEK293T GFP-POI reporter cells (CK1α); type: cell-based
T3 construct: expressed in transfected cells; host or cells: HEK293T (lentiviral transduction, puromycin selection, FACS sorting)

[4] = In vitro solubility in DMSO; type: physicochemical; conditions: DMSO
[5] = tested on: endometrioid ovarian cancer cell line A2780; experiment: 5-day MTT assay in A2780 cells; type: cell-based; conditions: Homo sapiens, 120 h; A2780, 5-day MTT assay
Procedure: (§1) Viability Assay: 10,000 cells (e.g., MOLM-13 cells, MLL-AF9 leukemic cells or normal BM cells) were plated onto flat-bottom 96-well plates in media with increasing concentration of compound up to […]. […] For measuring viability, Cell-Titer Glo kit (Promega) or MTT kit was used following manufacturer's instructions. For Cell-Titer Glo assay, cells were cooled to room temperature for 20-30 min, 100 μL of the cultured cells were transferred to opaque-white bottom 96-well plates and mixed with 100 μL of Cell-Titer Glo reagent. The mixture was incubated for 15 min at room temperature and read using a Synergy H1 Hybrid reader (BioTek) for luminescence. Data was normalized as percentage viability and graphed by non-linear regression curves in Graph Pad PRISM 7.0.

[6] = tested on: DLBCL cell line OCI-LY3; experiment: 5-day MTT assay in OCI-LY3 cells; type: cell-based; conditions: Homo sapiens, 120 h; OCI-LY3, 5-day MTT assay
Procedure: as §1

[7] = tested on: small cell lung cancer cell line NCI-H1048; experiment: 5-day MTT assay in NCI-H1048 cells; type: cell-based; conditions: NCI-H1048, 5-day MTT assay
Procedure: as §1

[8] = tested on: MOLM-13 cells; experiment: Cell viability assay in MOLM-13 cells; type: cell-based; conditions: Homo sapiens, read-out: IC50 (cytotoxicity)
Procedure: Viability Assay: 10,000 cells (e.g., MOLM-13 cells, MLL-AF9 leukemic cells or normal BM cells) were plated onto flat-bottom 96-well plates in media with increasing concentration of compound up to 100 µM. Cells were cultured for 72 h at 37° C. in a 5% CO2 incubator. For measuring viability, Cell-Titer Glo kit (Promega) or MTT kit was used following manufacturer's instructions. For Cell-Titer Glo assay, cells were cooled to room temperature for 20-30 min, 100 μL of the cultured cells were transferred to opaque-white bottom 96-well plates and mixed with 100 μL of Cell-Titer Glo reagent. The mixture was incubated for 15 min at room temperature and read using a Synergy H1 Hybrid reader (BioTek) for luminescence. Data was normalized as percentage viability and graphed by non-linear regression curves in Graph Pad PRISM 7.0.

[9] = In vitro metabolic stability; type: in vitro ADME; conditions: read-out: in vitro metabolic stability t1/2
[10] = Pharmacokinetics, plasma concentration in mice; conditions: male, CD1, mouse, ip, single intraperitoneal injection at 5 mg/kg, read-out: in vivo half-life t1/2 (converted)
Procedure: (§2) In vivo drug administration in MLL-AF9 and PDX mouse model: A total of 250,000 of MLL-AF9 BM secondary mouse leukemia cells were injected retroorbitally into 6-8 weeks-old female C57BL/6 recipient mice that has been sublethally irradiated at 450 cGy. For AML PDX model, 1 million PDX cells were transplanted by intravenous injection into 8-10 weeks old female NSG mice that had been sublethally irradiated at 200 rads 24 hr before transplant. […] DEG-77 was treated at 223 mg/kg in DMSO in 50 ul volume. Mice weight was monitored every day to check for toxicity. Mice were sacrificed when moribund, and organ weights were measured for disease burden. Spleen and bone marrow cells were isolated and processed for western blot analysis. All animal studies were performed on animal protocols approved by the Institutional Animal Care and Use Committee (IACUC) at Memorial Sloan Kettering Cancer Center. […] Plasma was extracted from each mouse after indicated time and DEG-35 in plasma was measured using HPLC. For examining the toxicity of DEG-77 in the hematopoietic system of Crbn^1391V mice, four rounds of DMSO or 223 mg/kg DEG-77 was treated in 8-12 weeks old female Crbn^1391V mice. Mice were injected once a week and were sacrificed 4 weeks later for blood analysis using the Element HT5 Hematology Analyzer (HESKA) and analysis of the hematopoietic cells by flow cytometry.

[11] = tested on: MLL-AF9 Crbn^1391V cells; experiment: Survival of BL6 mice transplanted with MLL-AF9 Crbn^1391V cells; type: in vivo; conditions: 223 mg/kg once per week
Procedure: Generation of MLL-AF9 Crbn^1391V leukemic cells: Lin-Sca+ Kit+ (LSK) cells were isolated from bone marrow cells of wildtype or Crbn^1391V mice that were 6 to 8 weeks old. Briefly, bone marrow cells were enriched for c-Kit positive cells by incubating with CD117/c-Kit microbeads and then processed through the autoMACS Pro Separator (Miltenyi Biotec), following the manufacturer's instructions. CKit enriched cells were stained with Lineage antibody cocktail (CD3, CD4, CD8, Gr1, B220, CD19, TER119 conjugated with PeCy5), Scal-Pac Blue, CD34-FITC, SLAM-APC, CD48-PE, and c-KIT-APC-Cy7. After staining, cells were sorted for LSK cells using a BD FACS Aria II instrument. Sorted LSK cells were incubated overnight in Stemspan SFEM medium (Stem Cell Technologies) with 10 ng/ml IL-3, 10 ng/ml IL-6, 50 ng/ml SCF. 10 ng/ml thrombopoietin (TPO), and 20 ng/ml FLT-3 ligand. […]
In vivo drug administration in MLL-AF9 and PDX mouse model: A total of 250,000 of MLL-AF9 BM secondary mouse leukemia cells were injected retroorbitally into 6-8 weeks-old female C57BL/6 recipient mice that has been sublethally irradiated at 450 cGy. […] Mice weight was monitored every day to check for toxicity. Mice were sacrificed when moribund, and organ weights were measured for disease burden. […] Plasma was extracted from each mouse after indicated time and DEG-35 in plasma was measured using HPLC. […]

[12] = tested on: AML PDX cells; experiment: AML PDX model in NSG mice; type: in vivo
Procedure: as §2

[13] = target: T4, GSPT1 (Homo sapiens, UniProt P15170+Q96SW2); experiment: Western blot of NCI-H1048 cells for GSPT1; type: cell-based; conditions: 24 h
[14] = Toxicity in hematopoietic system of Crbn^1391V mice; type: in vivo; conditions: four rounds, 223 mg/kg weekly
Procedure: as §2

[15] = tested on: MOLM-13 cells; experiment: Survival of NSG mice transplanted with MOLM-13 cells; type: in vivo; conditions: MOLM-13 transplanted mice, 223 mg/kg weekly
[16] = tested on: MLL-AF9 Crbn^1391V cells; experiment: Survival of Crbn^1391V mice transplanted with MLL-AF9 Crbn^1391V cells; type: in vivo; conditions: 223 mg/kg weekly
[17] = target: T4, GSPT1; experiment: Flow cytometry for measuring degradation, HEK293T GFP-POI reporter cells (GSPT1); type: cell-based; design: expressed in transfected cells; host or cells: HEK293T; conditions: 24 h, HEK293T GFP reporter
[18] = 100 nM, 24 h, HEK293T GFP reporter
[19] = 1 μM, 24 h, HEK293T GFP reporter

T4 sequence (P15170 whole entry): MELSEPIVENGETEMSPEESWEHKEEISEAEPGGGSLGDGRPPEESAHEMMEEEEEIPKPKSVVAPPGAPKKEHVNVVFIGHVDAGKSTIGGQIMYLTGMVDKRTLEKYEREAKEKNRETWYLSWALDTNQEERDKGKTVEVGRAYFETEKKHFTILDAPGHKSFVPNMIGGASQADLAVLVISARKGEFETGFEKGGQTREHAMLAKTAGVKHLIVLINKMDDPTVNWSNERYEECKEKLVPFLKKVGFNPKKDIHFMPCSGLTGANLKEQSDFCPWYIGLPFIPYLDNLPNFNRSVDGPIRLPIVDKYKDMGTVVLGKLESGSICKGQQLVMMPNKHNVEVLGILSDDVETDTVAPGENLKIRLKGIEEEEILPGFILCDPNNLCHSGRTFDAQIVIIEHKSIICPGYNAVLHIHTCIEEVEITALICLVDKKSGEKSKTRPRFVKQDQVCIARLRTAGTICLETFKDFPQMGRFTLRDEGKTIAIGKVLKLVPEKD
T4 sequence (Q96SW2 whole entry): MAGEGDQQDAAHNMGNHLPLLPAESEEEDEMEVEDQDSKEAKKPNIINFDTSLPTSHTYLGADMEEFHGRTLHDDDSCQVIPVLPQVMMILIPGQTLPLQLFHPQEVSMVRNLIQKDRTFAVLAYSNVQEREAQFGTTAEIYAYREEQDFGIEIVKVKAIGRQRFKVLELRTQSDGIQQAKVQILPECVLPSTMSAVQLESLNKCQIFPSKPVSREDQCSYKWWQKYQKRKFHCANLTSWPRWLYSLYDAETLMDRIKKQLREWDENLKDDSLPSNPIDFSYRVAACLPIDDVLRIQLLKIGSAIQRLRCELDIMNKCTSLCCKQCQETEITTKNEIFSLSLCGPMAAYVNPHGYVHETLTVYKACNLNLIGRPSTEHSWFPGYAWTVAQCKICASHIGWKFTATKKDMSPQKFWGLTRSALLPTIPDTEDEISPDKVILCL
T4 sequence (Q16531 whole entry partner): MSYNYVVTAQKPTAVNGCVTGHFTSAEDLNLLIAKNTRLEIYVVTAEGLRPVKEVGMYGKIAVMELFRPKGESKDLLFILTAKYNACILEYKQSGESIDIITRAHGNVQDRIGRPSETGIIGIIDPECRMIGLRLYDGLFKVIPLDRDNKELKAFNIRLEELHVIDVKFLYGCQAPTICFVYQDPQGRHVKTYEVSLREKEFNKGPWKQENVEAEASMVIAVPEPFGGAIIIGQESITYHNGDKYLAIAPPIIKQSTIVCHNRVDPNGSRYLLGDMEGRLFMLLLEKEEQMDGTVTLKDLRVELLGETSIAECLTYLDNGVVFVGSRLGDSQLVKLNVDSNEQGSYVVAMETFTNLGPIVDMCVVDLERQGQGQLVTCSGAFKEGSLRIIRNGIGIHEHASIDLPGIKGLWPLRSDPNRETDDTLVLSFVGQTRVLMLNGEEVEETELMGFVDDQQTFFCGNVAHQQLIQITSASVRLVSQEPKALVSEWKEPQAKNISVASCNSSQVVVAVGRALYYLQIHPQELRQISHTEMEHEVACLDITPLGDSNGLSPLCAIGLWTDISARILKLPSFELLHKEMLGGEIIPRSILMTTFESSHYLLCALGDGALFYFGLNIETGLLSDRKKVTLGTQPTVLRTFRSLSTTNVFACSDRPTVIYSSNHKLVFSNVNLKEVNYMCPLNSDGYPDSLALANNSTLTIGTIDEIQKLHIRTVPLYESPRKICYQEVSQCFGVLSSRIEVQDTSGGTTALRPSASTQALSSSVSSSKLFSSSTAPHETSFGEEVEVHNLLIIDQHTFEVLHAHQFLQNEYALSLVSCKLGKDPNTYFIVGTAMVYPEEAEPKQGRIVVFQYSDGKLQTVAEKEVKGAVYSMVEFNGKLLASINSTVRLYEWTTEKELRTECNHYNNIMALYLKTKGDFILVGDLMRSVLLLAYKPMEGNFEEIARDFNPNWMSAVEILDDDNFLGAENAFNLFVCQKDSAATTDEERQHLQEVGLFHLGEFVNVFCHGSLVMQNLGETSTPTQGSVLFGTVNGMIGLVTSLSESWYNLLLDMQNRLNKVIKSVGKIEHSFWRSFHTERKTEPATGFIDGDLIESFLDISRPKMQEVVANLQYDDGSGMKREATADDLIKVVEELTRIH
T2 sequence (Q9UKS7 whole entry): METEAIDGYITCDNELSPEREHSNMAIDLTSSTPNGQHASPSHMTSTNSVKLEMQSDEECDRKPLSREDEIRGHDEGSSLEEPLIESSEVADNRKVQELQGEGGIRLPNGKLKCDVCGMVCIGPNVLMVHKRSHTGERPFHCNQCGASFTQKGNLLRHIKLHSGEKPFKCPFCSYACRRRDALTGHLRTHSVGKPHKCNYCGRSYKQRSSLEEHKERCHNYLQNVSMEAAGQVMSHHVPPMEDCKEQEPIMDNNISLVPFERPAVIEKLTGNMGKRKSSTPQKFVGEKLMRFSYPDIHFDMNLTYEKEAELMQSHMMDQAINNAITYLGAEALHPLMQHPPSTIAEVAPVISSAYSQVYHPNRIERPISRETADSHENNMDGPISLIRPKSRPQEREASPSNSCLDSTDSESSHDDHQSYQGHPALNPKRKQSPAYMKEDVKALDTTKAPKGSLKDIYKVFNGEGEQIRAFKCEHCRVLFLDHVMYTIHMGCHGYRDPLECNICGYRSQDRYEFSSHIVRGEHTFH
T2 sequence (Q96SW2 whole entry): as the sequence (Q96SW2 whole entry) above
T2 sequence (Q16531 whole entry partner): as the sequence (Q16531 whole entry partner) above
T3 sequence (P48729 whole entry): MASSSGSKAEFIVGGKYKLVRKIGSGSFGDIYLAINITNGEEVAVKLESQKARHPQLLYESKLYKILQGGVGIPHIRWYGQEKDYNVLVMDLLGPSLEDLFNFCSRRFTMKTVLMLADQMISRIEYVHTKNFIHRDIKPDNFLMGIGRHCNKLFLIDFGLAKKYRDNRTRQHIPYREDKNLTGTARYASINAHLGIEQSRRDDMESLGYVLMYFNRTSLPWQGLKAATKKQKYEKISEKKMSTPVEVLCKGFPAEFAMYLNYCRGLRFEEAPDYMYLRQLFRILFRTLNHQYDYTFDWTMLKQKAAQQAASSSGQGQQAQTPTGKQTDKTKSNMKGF
T3 sequence (Q96SW2 whole entry): as the sequence (Q96SW2 whole entry) above
T3 sequence (Q16531 whole entry partner): as the sequence (Q16531 whole entry partner) above
T1 sequence (Q13422 whole entry): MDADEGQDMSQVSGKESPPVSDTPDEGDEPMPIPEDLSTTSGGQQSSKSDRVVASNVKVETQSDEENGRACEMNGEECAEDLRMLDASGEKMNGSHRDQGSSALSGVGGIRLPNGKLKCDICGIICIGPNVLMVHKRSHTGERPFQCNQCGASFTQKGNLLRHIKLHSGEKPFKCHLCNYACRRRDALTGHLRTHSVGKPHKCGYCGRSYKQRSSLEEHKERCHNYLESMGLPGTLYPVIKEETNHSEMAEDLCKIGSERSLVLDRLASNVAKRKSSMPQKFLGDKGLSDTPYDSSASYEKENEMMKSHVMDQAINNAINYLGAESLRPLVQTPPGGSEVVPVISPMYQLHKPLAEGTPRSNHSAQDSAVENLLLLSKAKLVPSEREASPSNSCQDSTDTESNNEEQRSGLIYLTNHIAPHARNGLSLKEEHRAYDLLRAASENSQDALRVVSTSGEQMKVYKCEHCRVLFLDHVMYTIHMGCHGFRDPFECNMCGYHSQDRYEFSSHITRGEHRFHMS
T1 sequence (Q96SW2 whole entry): as the sequence (Q96SW2 whole entry) above
T1 sequence (Q16531 whole entry partner): as the sequence (Q16531 whole entry partner) above

SMILES: COc1cccc2c1OCC(C(=O)Nc1ccc3c(c1)CN(C1CCC(=O)NC1=O)C3=O)=C2 (centres unmarked) [DEG-77, N-(2-(2,6-dioxopiperidin-3-yl)-1-oxoisoindolin-5-yl)-8-methoxy-2H-chromene-3-carboxamide]
- IKZF1% degradation at 100 nM ([1]; 100 nM): 10.7 ± 1.1%
- IKZF1% degradation at 1 μM ([1]; 1 μM): 29 ± 0.9%
- DC50 [2]: 0.0153 µM
- IKZF2% degradation at 100 nM [2, 18]: 82.3 ± 0.6%
- IKZF2% degradation at 1 μM [2, 19]: 94.4 ± 0.1%
- CK1α % degradation at 100 nM [3, 18]: 68.6 ± 1%
- CK1α % degradation at 1 μM [3, 19]: 72.7 ± 0.8%
- DC50 ([3]; read-out: DC50 CK1α): 0.01 µM
- increase in solubility in DMSO compared to DEG-35 [4]: 10 fold
- EC50 [5]: 0.027 µM
- EC50 [6]: 0.014 µM
- sensitivity of NCI-H1048 cells (in words) [7]: selectively sensitive to DEG-35 and not DEG-77
- IC50 [8]: 0.004 µM
- half-life [9]: > 6 h
- half-life [10]: 8 h
- total body weight (in words) [11]: without total body weight loss
- survival ([11]; vehicle treated mice 35 days): 66 days
- survival (in words) ([12]; PDX AML model, weekly from 4 weeks post-transplant, 223 mg/kg): significant extension of survival
- engraftment of PDX cells in the bone marrow ([12]; after a single injection, >85% prior to treatment): around 40%
- GSPT1 degradation by Western blot (in words) [13]: did not affect protein levels
- WBC counts (in words) [14]: modest reduction of WBC counts
- platelets and RBC counts (in words) [14]: remained unchanged
- survival (in words) [15]: increased survival
- survival (in words) [16]: significant increase in survival
- GSPT1% degradation at 100 nM ([17]; 100 nM): 3.7 ± 1.3%
- GSPT1% degradation at 1 μM ([17]; 1 μM): 2.6 ± 1%

Source: patent US20260021103A1, “IKZF2 AND CK1-ALPHA DEGRADING COMPOUNDS AND USES THEREOF” (President and Fellows of Harvard College, priority 2022, published 2026)
